# Read-outs that look alike come from different tables or passages of the source.
# Tested on: bacteria
Substance,MIC (A. calcoaceticus AC002),MIC (E. cloacae ECL007),MIC (K. pneumoniae KP001),MIC (P. aeruginosa PA004),MIC (S. maltophilia SMA002),MIC (S. marcescens SMS003),MIC (E. faecalis EFS002),MIC (E. faecium EFM003),MIC (K. pneumoniae KP002),MIC (S. marcescens SMS004),MIC (A. calcoaceticus AC001),MIC (E. faecalis EFS004),other results
I L K K W P W W P W R K [MBI 11B4ACN],4 µg/mL,>128 µg/mL,32 µg/mL,>128 µg/mL,64 µg/mL,>128 µg/mL,,,,,,,MIC (E. coli ECO005): 32 µg/mL; MIC (E. faecalis EFS008): 64 µg/mL; MIC (S. aureus SA008): 1 µg/mL; MIC (S. epidermidis SE010): 8 µg/mL
ILKKWPWWPWRRIMILKKAGS [MBI 11D6CN],4 µg/mL,>32 µg/mL,,,,,4 µg/mL,1 µg/mL,>64 µg/mL,>64 µg/mL,,,MIC (E. coli ECO002): 32 µg/mL; MIC (P. aeruginosa PA024): >64 µg/mL; MIC (S. aureus SA009): 8 µg/mL; MIC (S. epidermidis SE010): 4 µg/mL; MIC (S. maltophilia SMA001): >64 µg/mL
I L K K W P W W P W R R I M [MBI 11D13H],,>64 µg/mL,,>64 µg/mL,>64 µg/mL,,,,>64 µg/mL,>64 µg/mL,64 µg/mL,16 µg/mL,MIC (E. coli ECO002): 32 µg/mL; MIC (S. aureus SA025): 4 µg/mL
ILKKWPWWPWRRKMILKKAGS [MBI 11D4CN],,>64 µg/mL,,>64 µg/mL,,,16 µg/mL,,>64 µg/mL,>64 µg/mL,>64 µg/mL,,MIC (E. coli ECO003): 64 µg/mL; MIC (E. faecium EFM002): 1 µg/mL; MIC (S. aureus SA009): 4 µg/mL; MIC (S. maltophilia SMA001): >64 µg/mL
I L K K W P W W P W R R K M [MBI 11D11H],,>64 µg/mL,>64 µg/mL,,>64 µg/mL,,,,,>64 µg/mL,>64 µg/mL,,MIC (E. coli ECO002): 32 µg/mL; MIC (P. aeruginosa PA001): >64 µg/mL; MIC (S. aureus SA008): 4 µg/mL
I L K K W P W W P W R R K [MBI 11ACN],2 µg/mL,>128 µg/mL,16 µg/mL,>128 µg/mL,64 µg/mL,>128 µg/mL,,,,,,8 µg/mL,MIC (E. coli ECO005): 16 µg/mL; MIC (E. faecalis EFS008): 64 µg/mL; MIC (S. aureus SA014): 8 µg/mL; MIC (S. epidermidis SE010): 4 µg/mL
I L K K W P W W P W R R K [MBI 11A],,>64 µg/mL,64 µg/mL,,>64 µg/mL,>64 µg/mL,,,,,>64 µg/mL,32 µg/mL,MIC (E. coli ECO005): >64 µg/mL; MIC (P. aeruginosa PA024): >64 µg/mL; MIC (S. aureus SA002): 4 µg/mL
I L K K W P W W P W R R K [MBI 11CNW1],8 µg/mL,64 µg/mL,32 µg/mL,64 µg/mL,32 µg/mL,>128 µg/mL,,,,,,,MIC (E. coli ECO005): 32 µg/mL; MIC (E. faecalis EFS001): 8 µg/mL; MIC (S. aureus SA010): 4 µg/mL
I L K K W P W W P W R R K [MBI 11CNX1],,>64 µg/mL,>64 µg/mL,,>64 µg/mL,>64 µg/mL,,,,,>64 µg/mL,16 µg/mL,MIC (E. coli ECO005): 64 µg/mL; MIC (P. aeruginosa PA024): >64 µg/mL; MIC (S. aureus SA006): 2 µg/mL
I L K K W P W W P W R R K [MBI 11M4],,,,,,,,,,,,,MIC (E. faecalis EFS001): 32 µg/mL; MIC (E. faecium EFM001): 32 µg/mL; MIC (S. aureus SA008): 8 µg/mL
I L K K W P W W P W R R K [MBI 11M8],,,,,,,32 µg/mL,,,,,,MIC (E. faecium EFM002): 32 µg/mL; MIC (S. aureus SA008): 32 µg/mL
ILKKWPWWPWRRMILKKAGS [MBI 11D5CN],,>64 µg/mL,>64 µg/mL,,,,16 µg/mL,1 µg/mL,,>64 µg/mL,>64 µg/mL,,MIC (E. coli ECO003): 64 µg/mL; MIC (P. aeruginosa PA003): >64 µg/mL; MIC (S. aureus SA005): 8 µg/mL; MIC (S. maltophilia SMA001): 64 µg/mL
I L K K W P W W P W R R M [MBI 11D12H],,>64 µg/mL,,>64 µg/mL,>64 µg/mL,,,,>64 µg/mL,>64 µg/mL,>64 µg/mL,16 µg/mL,MIC (E. coli ECO003): 64 µg/mL; MIC (S. aureus SA014): 16 µg/mL
I L K K W P W W P W R R [MBI 11G7ACN],4 µg/mL,>32 µg/mL,,,,,,,>32 µg/mL,>32 µg/mL,,,MIC (E. coli ECO002): 16 µg/mL; MIC (E. faecalis EFS008): 32 µg/mL; MIC (E. faecium EFM001): 8 µg/mL; MIC (P. aeruginosa PA006): >32 µg/mL; MIC (S. aureus SA010): 1 µg/mL; MIC (S. epidermidis SE002): 4 µg/mL; MIC (S. maltophilia SMA001): 32 µg/mL
I L K K W P W W P W R R k [MBI 11E2CN],4 µg/mL,>128 µg/mL,,,,,32 µg/mL,,64 µg/mL,>128 µg/mL,,,MIC (E. coli ECO002): 8 µg/mL; MIC (E. faecium EFM001): 16 µg/mL; MIC (P. aeruginosa PA001): >128 µg/mL; MIC (S. aureus SA016): 2 µg/mL; MIC (S. epidermidis SE010): 4 µg/mL; MIC (S. maltophilia SMA001): 64 µg/mL
I L K K W P W W W R K [MBI 11D15CN],,,,,,,32 µg/mL,4 µg/mL,,,,,MIC (S. aureus SA009): 8 µg/mL
I L K K W P W W W R R K [MBI 11G5CN],4 µg/mL,>128 µg/mL,>128 µg/mL,,64 µg/mL,,16 µg/mL,,,>128 µg/mL,,,MIC (E. coli ECO003): 16 µg/mL; MIC (E. faecium EFM002): 8 µg/mL; MIC (P. aeruginosa PA003): >128 µg/mL; MIC (S. aureus SA012): 4 µg/mL; MIC (S. epidermidis SE002): 2 µg/mL
I L K K W P W [MBI 11D10M8],,,,,,,32 µg/mL,32 µg/mL,,,,,MIC (S. aureus SA008): 32 µg/mL
I L K K W V W W V W R R K [MBI 11F1CN],,>128 µg/mL,,64 µg/mL,,>128 µg/mL,,2 µg/mL,32 µg/mL,,,16 µg/mL,MIC (E. coli ECO003): 8 µg/mL; MIC (S. aureus SA009): 2 µg/mL; MIC (S. marcescens SBSM1): >128 µg/mL
I L K K W W W P W R K [MBI 11D14CN],,,,,,,32 µg/mL,1 µg/mL,,,,,MIC (S. aureus SA009): 4 µg/mL
I L K K W W W P W R R K [MBI 11G4CN],4 µg/mL,>128 µg/mL,>128 µg/mL,>128 µg/mL,64 µg/mL,>128 µg/mL,32 µg/mL,1 µg/mL,,,,,MIC (E. coli ECO005): 32 µg/mL; MIC (S. aureus SA004): 1 µg/mL; MIC (S. epidermidis SE010): 2 µg/mL
I L K K Y P W Y P W R R K [MBI 11A5CN],,>128 µg/mL,>128 µg/mL,,>128 µg/mL,>128 µg/mL,32 µg/mL,4 µg/mL,,,>128 µg/mL,,MIC (E. coli ECO003): 128 µg/mL; MIC (P. aeruginosa PA003): >128 µg/mL; MIC (S. aureus SA002): 6 µg/mL
I L K W P W W P W R K [MBI 11B5CN],,,,,,,16 µg/mL,,,,,,"MIC (A. calcoaceticus AC002, agarose dilution): 4 µg/mL; MIC (E. cloacae ECL007, agarose dilution): >128 µg/mL; MIC (E. coli ECO005, agarose dilution): 16 µg/mL; MIC (E. faecalis EFS001, agarose dilution): 2 µg/mL; MIC (E. faecalis EFS008, agarose dilution): 8 µg/mL; MIC (E. faecium EFM002): 1 µg/mL; MIC (K. pneumoniae KP001, agarose dilution): 16 µg/mL; MIC (P. aeruginosa PA004, agarose dilution): >128 µg/mL; MIC (S. aureus SA005): 2 µg/mL; MIC (S. aureus SA014, agarose dilution): 2 µg/mL; MIC (S. aureus SA093, agarose dilution): 1 µg/mL; MIC (S. epidermidis SE010, agarose dilution): 1 µg/mL; MIC (S. maltophilia SMA002, agarose dilution): 64 µg/mL; MIC (S. marcescens SMS003, agarose dilution): >128 µg/mL"
I L K W P W W P W R R K [MBI 11B3CN],,>128 µg/mL,,,32 µg/mL,,,,64 µg/mL,>128 µg/mL,64 µg/mL,,MIC (E. coli ECO002): 16 µg/mL; MIC (E. faecalis EFS001): 16 µg/mL; MIC (E. faecium EFM001): 8 µg/mL; MIC (P. aeruginosa PA003): >128 µg/mL; MIC (S. aureus SA010): 4 µg/mL
I L P W K W P W W P W R R [MBI 10A],,,,,,,,8 µg/mL,,,,16 µg/mL,MIC (S. aureus SA010): 8 µg/mL
I L R R W P W W P W R K [MBI 11B2CN],,>128 µg/mL,,,64 µg/mL,,,,64 µg/mL,>128 µg/mL,64 µg/mL,8 µg/mL,MIC (E. coli ECO003): 16 µg/mL; MIC (E. faecium EFM001): 8 µg/mL; MIC (P. aeruginosa PA003): >128 µg/mL; MIC (S. aureus SA005): 2 µg/mL
I L R R W P W W P W R R K [MBI 11B1CNW1],16 µg/mL,64 µg/mL,32 µg/mL,64 µg/mL,32 µg/mL,>128 µg/mL,,,,,,8 µg/mL,MIC (E. coli ECO005): 32 µg/mL; MIC (S. aureus SA014): 16 µg/mL; MIC (S. epidermidis SE010): 8 µg/mL
I L R R W P W W P W R R R [MBI 11B9ACN],,,,,,,,,32 µg/mL,>128 µg/mL,32 µg/mL,8 µg/mL,MIC (E. coli ECO003): 8 µg/mL; MIC (E. faecium EFM001): 4 µg/mL; MIC (P. aeruginosa PA005): >128 µg/mL; MIC (S. aureus SA019): 2 µg/mL; MIC (S. epidermidis SE002): 2 µg/mL; MIC (S. maltophilia SMA001): 16 µg/mL

# Reference: US6503881B2 (priority 1996, dated 2003)
